Test system: rabbit eye (conjunctiva, iris, cornea)
Assay: Ocular tolerability (Draize) in rabbits
Format: in vivo, rabbits (New Zealand White)
Method: Two aqueous solutions were used.
The first contained 1% by weight of L-(−)-moprolol hydrochloride (corresponding to 0.87% by weight of L-(−)-moprolol). The second contained 1.14% by weight of L-(−)-moprolol L-(+)-tartrate (2:1) (corresponding to 0.87% by weight of L-(−)-moprolol).
12 male rabbits (New Zealand White) with an average weight of 2 kg and an average age of ten months were used, divided into two groups of six rabbits each. The first group was treated with 0.1 ml of the first test solution three times a day for fifteen days. The second group was treated with 0.1 ml of the second test solution three times a day for fifteen days.
The tolerability was evaluated according to J. Draize et al., Pharmacol. Exp. Ther., 83, 377-390 (1944).

[1] = Draize score, male rabbits, 0.1 ml aqueous solution (0.87% by weight L-(−)-moprolol) three times a day for fifteen days

Structure (SMILES) | Conjunctiva Lachrymation [1] | Conjunctiva Reddening [1] | Conjunctiva Swelling [1] | Cornea Area of the cornea affected by opacity [1] | Cornea Opacity [1] | Iris [1] | local tolerability (rabbit, in vivo) | Total Score (sum of Draize scores, male rabbits, 0.1 ml aqueous solution (0.87% by weight L-(−)-moprolol) three times a day for fifteen days) | Conjunctiva Lachrymation (rabbit, in vivo) | Conjunctiva Reddening (rabbit, in vivo) | Conjunctiva Swelling (rabbit, in vivo) | Cornea Area of the cornea affected by opacity (rabbit, in vivo) | Cornea Opacity (rabbit, in vivo) | Iris (rabbit, in vivo) | Total Score (rabbit, in vivo)
COc1ccccc1OC[C@@H](O)CNC(C)C.COc1ccccc1OC[C@@H](O)CNC(C)C.O=C(O)C(O)C(O)C(=O)O [L-(−)-moprolol L-(+)-tartrate, L-(−)-moprolol L-(+)-tartrate (2:1)] | 1 | 0 | 0 | 0 | 0 | 0 | better local tolerability | 1 | – | – | – | – | – | – | –
COc1ccccc1OC[C@@H](O)CNC(C)C.Cl [L-(−)-moprolol hydrochloride, reference compound] | – | – | – | – | – | – | – | – | 2 | 1 | 2 | 0 | 0 | 0 | 5

Source: patent publication US7524886B2, “L-(−)-moprolol L-(+)-tartrate” (Aziende Chimiche Riunite Angelini Francesco A.C.R.A.F. …, priority 2004, dated 2009)
